In ChEMBL document CHEMBL1201862, “PubChem BioAssay data set” (2004):
The source made the active and inactive calls.

Columns and labels:
[1] = target: Latent membrane protein 1 (Human herpesvirus 4 (strain B95-8), UniProt P03230); assay: TES1-eGFP NF-kB reporter inhibition versus Tet-On dsRED, dose response, selectivity assay for LMP1 NF-kB inhibitor project, imaging, HEK293T, dual-color eGFP/dsRED, cherry-picks (AID 588398); assay type: functional, cell-based
HEK293 [2] = assay: inhibitors of LMP1-driven NF-kB reporter, dose response, cell-based, HEK293, luciferase, cherry-pick (AID 588343); assay type: functional; details: Homo sapiens
HEK293 [3] = assay: NOD1 signaling inhibitors, primary screen, cell-based, luminescence, uHTS (AID 1578); assay type: functional; details: Homo sapiens
HEK293 [4] = assay: cells; assay type: functional, cell-based; details: Homo sapiens
Cysteine protease ATG4B = Cysteine protease ATG4B (Homo sapiens, UniProt Q9Y4P1); assay type: functional;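 note: Fluorescence-based dose-response confirmation assay measuring inhibition of ATG4B activity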
HEK293 [5] = assay: cells; assay type: functional, cell-based; details: Homo sapiens; remark: listed apart in the source
Vero = Vero cell cytotoxicity, cytotoxicity control for flavivirus capping enzyme inhibitors (AID 588742); assay type: functional; details: Chlorocebus sabaeus
[6] = HIV-1 Env-mediated cell fusion inhibitors, dose response, CCR5-tropic Env (AID 2279); assay type: functional
HEK293 [7] = assay: NOD2 signaling inhibitors in MDP-stimulated cells, cell-based, uHTS, luminescence (AID 2001); assay type: functional; details: Homo sapiens
Streptococcus = assay: Group A Streptococcus viability loss, dose response, counter-screen for streptokinase expression inhibitor project, luminescence, BacTiterGlo (AID 1915); assay type: functional, organism-based;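 note: potency for reduction of bacterial viability or growth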
Streptokinase A = target: T1, Streptokinase A (Streptococcus pyogenes serotype M1, UniProt P10520); assay: S. pyogenes streptokinase expression inhibitors, potency, dose response, plasminogen activation absorbance, OD405 (AID 1914); assay type: functional, Streptococcus pyogenes M1 GAS;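 note: secreted streptokinase activity via plasminogen activation per viability signal from cell pellet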
T1 sequence (P10520 whole entry): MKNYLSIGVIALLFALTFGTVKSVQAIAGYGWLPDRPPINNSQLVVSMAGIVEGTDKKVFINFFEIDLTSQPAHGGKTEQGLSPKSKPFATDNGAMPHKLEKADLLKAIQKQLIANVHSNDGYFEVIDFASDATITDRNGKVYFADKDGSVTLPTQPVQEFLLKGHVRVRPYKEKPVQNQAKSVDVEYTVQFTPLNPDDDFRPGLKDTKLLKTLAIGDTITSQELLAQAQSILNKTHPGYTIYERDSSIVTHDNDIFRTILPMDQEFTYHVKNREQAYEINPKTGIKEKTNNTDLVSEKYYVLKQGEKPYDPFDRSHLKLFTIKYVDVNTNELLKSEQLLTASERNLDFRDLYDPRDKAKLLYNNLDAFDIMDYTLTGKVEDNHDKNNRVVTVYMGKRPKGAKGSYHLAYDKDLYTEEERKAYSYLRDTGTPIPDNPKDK

Genome polyprotein = Genome polyprotein (dengue virus type 2, UniProt P29990); assay: Dengue-2 NS5 methyltransferase inhibitors, primary screen, biochemical, confirmation dose response (AID 588689); assay type: functional
[8] = system: Streptococcus sp. 'group A'; assay: growth inhibition of control SK(-) GAS strain, dose response, counter-screen for streptokinase expression inhibitor project, luminescence, kanamycin, BacTiterGlo, confirmation (AID 1900); assay type: functional, organism-based
Phospholipase A2 = Phospholipase A2 (Homo sapiens, UniProt P04054); assay type: functional;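 note: confirmatory dose-response counterscreen on phospholipase A2, testing hits that came from an ultra-high-throughput screen for ATG4B inhibitors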
[9] = target: T2, Multidrug resistance protein CDR2 (Candida albicans (strain SC5314 / ATCC MYA-2876) (Yeast), UniProt P78595); assay: CaCDR2 efflux pump inhibitors in yeast, dose response, S. cerevisiae AD1-8u, singleplex, Cherry Pick1 hits (AID 588604); assay type: functional
[10] = Luminescence Cell-Based Dose Retest to Confirm Inhibitors of Cancer Stem Cells. [Related pubchem assays (depositor defined):AID2717, AID2721]; assay type: functional; details: Homo sapiens
[11] = target: T3, Ubiquitin-conjugating enzyme E2 N (Homo sapiens, UniProt P61088); assay type: functional;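 note: Dose-response confirmation in a TR-FRET assay detecting UBC13-driven polyubiquitin chain formation, inhibition measured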
T3 sequence (P61088 whole entry): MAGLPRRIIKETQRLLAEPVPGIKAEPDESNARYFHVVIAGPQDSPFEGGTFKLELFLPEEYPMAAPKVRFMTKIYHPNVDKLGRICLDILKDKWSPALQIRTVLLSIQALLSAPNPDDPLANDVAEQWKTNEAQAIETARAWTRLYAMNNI

[12] = target: T2, Multidrug resistance protein CDR2; assay: CaCDR2 efflux pump inhibitors in yeast, dose response, S. cerevisiae AD1-8u, singleplex, Cherry Pick2 set (AID 623994); assay type: functional; details: read-out: EC50_MICROM
[13] = target: Benomyl/methotrexate resistance protein (Candida albicans, UniProt P28873); assay: CaMdr1 efflux pump inhibitor potency, dose response, singleplex, Cherry Pick2 set (AID 623992); assay type: functional; details: read-out: EC50_MICROM
[14] = target: Multidrug resistance protein CDR1 (Candida albicans, UniProt P43071); assay: CaCdr1 efflux pump inhibitor potency, dose response, singleplex, Cherry Pick2 set (AID 623996); assay type: functional; details: read-out: EC50_MICROM
INS1 [15] = assay: inhibitors of cytokine-induced nitrite release, dose response, cell-based, Griess absorbance, INS-1E, dry powder, set 2 (AID 488868); assay type: functional; details: Rattus norvegicus
INS1 [16] = assay: caspase-3/7 inhibition in cytokine-treated INS-1E, dose response, beta-cell apoptosis inhibitor project, cell-based, caspase luminescence, dry powder (AID 488848); assay type: functional; details: Rattus norvegicus
Phospholipase D2 = Phospholipase D2 (Homo sapiens, UniProt O14939); assay: PLD2 inhibitor potency in cells, dose response (AID 602147); assay type: functional;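 note: cellular assay in HEK293 cells overexpressing GFP-tagged PLD2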
Phospholipase D1 = Phospholipase D1 (Homo sapiens, UniProt Q13393); assay: PLD1 inhibitor potency in cells, dose response (AID 602151); assay type: functional;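 note: cellular PLD1 assay in Calu-1 cells stimulated with PMA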
CAAX prenyl protease 2 [17] = target: T4, CAAX prenyl protease 2 (Saccharomyces cerevisiae S288c, UniProt Q03530); assay type: biochemical
T4 sequence (Q03530 whole entry): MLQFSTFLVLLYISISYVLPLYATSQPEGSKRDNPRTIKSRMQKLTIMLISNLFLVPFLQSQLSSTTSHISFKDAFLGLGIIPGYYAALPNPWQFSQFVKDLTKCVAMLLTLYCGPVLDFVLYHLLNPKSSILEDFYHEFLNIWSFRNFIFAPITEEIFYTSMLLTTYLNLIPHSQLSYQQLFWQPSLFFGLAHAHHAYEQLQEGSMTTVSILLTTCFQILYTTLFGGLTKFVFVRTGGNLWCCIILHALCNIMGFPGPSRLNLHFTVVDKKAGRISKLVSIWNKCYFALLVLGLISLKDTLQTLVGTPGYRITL

CAAX prenyl protease 2 [18] = target: T4, CAAX prenyl protease 2; assay: yeast Rce1 CaaX protease inhibitors, dose response, biochemical, plate reader, dry powder retest (AID 588851)

T2 sequence (P78595 whole entry): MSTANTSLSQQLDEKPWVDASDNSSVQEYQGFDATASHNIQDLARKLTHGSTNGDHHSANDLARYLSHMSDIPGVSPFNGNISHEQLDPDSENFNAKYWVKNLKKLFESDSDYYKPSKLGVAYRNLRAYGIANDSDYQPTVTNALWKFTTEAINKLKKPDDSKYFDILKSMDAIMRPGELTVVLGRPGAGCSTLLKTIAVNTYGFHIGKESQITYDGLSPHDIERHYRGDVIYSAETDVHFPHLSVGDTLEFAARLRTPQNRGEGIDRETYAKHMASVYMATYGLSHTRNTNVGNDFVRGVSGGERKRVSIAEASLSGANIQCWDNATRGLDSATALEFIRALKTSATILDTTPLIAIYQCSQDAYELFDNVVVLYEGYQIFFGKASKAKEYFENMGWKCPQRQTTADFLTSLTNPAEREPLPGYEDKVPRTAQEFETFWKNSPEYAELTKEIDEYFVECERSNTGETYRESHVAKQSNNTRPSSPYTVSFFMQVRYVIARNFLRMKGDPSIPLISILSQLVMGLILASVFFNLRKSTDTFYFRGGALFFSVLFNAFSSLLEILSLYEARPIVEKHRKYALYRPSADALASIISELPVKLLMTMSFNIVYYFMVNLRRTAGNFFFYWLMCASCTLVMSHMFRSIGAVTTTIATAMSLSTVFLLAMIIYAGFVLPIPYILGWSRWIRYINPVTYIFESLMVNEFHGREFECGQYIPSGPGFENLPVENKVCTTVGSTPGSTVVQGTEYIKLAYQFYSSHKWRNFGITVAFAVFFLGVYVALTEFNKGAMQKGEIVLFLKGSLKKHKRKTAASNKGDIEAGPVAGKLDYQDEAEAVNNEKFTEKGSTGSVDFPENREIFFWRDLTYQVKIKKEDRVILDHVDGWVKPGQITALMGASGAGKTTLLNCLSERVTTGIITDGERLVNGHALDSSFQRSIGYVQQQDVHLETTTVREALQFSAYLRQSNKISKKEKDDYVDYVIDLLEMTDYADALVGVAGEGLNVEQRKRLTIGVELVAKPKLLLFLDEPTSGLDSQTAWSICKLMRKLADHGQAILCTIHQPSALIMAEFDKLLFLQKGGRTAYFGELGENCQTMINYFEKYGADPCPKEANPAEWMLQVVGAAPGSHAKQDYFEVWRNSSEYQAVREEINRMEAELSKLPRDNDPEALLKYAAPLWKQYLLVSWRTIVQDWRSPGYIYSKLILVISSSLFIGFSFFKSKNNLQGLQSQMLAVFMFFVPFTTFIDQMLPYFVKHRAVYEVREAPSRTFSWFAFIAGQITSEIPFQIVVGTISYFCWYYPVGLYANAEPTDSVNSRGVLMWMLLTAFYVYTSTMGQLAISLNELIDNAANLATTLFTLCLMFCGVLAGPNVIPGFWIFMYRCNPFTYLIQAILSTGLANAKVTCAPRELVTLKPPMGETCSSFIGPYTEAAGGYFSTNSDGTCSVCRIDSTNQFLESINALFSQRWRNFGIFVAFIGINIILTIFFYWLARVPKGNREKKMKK
Phospholipase D2, sequence (O14939 whole entry): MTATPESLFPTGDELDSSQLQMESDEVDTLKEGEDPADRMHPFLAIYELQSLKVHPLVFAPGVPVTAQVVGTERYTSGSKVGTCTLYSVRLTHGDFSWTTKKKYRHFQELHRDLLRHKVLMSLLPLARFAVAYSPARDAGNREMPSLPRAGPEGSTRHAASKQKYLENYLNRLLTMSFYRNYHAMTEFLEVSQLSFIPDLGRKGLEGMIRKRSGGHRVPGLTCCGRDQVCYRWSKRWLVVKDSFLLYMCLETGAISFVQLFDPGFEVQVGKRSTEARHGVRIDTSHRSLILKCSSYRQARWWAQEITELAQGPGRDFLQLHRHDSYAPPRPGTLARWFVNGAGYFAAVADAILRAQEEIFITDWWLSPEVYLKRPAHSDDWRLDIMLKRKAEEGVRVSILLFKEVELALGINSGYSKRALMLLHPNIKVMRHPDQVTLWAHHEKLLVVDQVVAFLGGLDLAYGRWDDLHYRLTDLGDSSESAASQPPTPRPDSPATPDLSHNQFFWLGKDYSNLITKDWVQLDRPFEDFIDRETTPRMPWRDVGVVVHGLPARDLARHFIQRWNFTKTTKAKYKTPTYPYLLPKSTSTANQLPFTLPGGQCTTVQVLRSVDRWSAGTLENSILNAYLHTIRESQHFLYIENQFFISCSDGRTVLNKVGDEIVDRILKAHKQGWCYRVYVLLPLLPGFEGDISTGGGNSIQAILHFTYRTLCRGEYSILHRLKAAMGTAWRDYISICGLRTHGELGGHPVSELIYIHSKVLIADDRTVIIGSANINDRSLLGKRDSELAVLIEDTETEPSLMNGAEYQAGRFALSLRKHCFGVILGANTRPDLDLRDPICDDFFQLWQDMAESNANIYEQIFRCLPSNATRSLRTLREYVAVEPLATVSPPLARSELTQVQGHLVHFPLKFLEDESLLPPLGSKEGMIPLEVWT
Phospholipase D1, sequence (Q13393 whole entry): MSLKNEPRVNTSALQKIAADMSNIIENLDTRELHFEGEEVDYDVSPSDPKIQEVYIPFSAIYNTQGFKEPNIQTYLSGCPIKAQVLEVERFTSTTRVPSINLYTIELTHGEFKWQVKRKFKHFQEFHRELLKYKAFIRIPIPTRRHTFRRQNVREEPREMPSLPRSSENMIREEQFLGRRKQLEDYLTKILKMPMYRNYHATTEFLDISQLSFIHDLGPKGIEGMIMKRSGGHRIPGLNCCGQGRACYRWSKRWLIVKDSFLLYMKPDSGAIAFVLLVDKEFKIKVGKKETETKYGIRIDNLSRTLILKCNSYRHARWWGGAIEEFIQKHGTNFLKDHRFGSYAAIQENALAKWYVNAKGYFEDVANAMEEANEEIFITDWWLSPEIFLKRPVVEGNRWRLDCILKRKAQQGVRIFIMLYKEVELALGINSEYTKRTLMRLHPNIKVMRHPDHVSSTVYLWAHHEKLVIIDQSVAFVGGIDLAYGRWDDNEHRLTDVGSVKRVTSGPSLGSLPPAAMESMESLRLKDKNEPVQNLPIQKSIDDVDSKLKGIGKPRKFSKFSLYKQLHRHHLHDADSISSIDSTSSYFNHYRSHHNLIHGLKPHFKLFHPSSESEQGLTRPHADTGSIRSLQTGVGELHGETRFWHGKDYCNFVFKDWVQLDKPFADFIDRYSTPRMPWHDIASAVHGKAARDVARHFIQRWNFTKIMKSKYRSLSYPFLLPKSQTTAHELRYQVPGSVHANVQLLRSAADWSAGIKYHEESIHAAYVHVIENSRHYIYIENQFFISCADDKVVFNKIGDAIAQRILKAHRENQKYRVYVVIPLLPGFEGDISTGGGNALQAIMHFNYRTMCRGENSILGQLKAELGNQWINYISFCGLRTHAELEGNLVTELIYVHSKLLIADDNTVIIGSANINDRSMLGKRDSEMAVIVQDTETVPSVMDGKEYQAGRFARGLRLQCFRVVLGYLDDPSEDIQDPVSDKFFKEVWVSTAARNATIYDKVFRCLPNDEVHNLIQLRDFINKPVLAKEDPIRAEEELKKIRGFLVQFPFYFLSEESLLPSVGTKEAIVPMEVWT
Benomyl/methotrexate resistance protein, sequence (P28873 whole entry): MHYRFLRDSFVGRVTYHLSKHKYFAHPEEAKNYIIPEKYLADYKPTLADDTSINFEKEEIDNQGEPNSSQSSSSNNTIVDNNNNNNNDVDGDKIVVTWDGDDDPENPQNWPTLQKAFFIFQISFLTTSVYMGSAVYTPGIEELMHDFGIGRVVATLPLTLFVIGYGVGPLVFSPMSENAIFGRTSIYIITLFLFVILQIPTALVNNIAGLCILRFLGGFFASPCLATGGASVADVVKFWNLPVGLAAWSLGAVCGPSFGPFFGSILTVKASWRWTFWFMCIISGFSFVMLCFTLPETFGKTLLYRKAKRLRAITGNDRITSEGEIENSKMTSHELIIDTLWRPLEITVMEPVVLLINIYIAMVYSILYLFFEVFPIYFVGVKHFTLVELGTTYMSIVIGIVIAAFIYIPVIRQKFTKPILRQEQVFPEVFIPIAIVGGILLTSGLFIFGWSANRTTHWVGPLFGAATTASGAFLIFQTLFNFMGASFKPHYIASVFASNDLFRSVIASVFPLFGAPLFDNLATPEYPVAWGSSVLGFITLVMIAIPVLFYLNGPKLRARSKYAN
Cysteine protease ATG4B, sequence (Q9Y4P1 whole entry): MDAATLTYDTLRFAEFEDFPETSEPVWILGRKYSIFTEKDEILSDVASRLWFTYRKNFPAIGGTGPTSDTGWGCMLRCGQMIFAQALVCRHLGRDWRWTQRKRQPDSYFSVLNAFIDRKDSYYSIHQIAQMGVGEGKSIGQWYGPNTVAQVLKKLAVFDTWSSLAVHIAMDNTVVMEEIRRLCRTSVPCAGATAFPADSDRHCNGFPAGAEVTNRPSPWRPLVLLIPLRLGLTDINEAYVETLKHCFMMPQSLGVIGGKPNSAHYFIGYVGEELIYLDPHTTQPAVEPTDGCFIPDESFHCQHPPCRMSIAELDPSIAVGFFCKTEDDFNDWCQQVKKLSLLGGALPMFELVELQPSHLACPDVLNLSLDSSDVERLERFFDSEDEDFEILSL
Latent membrane protein 1, sequence (P03230 whole entry): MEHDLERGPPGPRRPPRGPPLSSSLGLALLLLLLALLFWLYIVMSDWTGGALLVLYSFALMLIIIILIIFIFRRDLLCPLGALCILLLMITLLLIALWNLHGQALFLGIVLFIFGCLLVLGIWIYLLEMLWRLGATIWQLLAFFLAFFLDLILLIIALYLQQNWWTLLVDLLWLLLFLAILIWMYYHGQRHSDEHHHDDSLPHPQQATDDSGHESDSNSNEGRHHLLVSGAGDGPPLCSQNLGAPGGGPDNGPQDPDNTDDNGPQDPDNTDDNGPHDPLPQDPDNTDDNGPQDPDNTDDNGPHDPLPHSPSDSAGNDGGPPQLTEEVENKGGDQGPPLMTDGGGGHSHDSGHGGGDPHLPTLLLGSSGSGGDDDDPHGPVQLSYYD
Phospholipase A2, sequence (P04054 whole entry): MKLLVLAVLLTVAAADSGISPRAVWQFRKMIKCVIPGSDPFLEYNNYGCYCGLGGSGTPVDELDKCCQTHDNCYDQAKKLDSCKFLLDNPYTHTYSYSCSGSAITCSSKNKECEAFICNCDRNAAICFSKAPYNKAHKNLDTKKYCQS

O=C(OC1CCN(CCCl)CC1)C(c1ccccc1)c1ccccc1
active: AC50 [1] 24.2 µM | AC50 (HEK293 [2]) 24.3 µM

O=C(O)CCn1cc(/C=C/C(=O)c2ccc(Cl)cc2)c(-c2cccc(Br)c2)n1
active: EC50 (HEK293 [3]) 6.52 µM | IC50 (HEK293 [4]) 17.9 µM | IC50 (Cysteine protease ATG4B) 13.5 µM | IC50 (HEK293 [5]) 10.6 µM | CC50 (Vero) > 40 µM | IC50 [6] 27.8 µM | IC50 (HEK293 [7]) 4.06 µM | EC50 (Streptococcus) 6.69 µM | EC50 (Streptokinase A) 0.874 µM | IC50 (Genome polyprotein) 52.4 µM | EC50 [8] 4.35 µM | IC50 (Phospholipase A2) 8.65 µM

COc1ccc2sc(-c3ccccc3OC)c(-c3ccc(OCCN4CCCC4)cc3)c2c1
active: EC50 [9] 0.87 µM | AC50 [10] 5.62 µM | EC50 [12] 0.958 µM | EC50 [13] 50.2 µM | EC50 [14] 23.6 µM
inactive: IC50 [11] > 20 µM

COc1ccc(S(=O)(=O)N(C)C[C@@H]2Oc3c(NC(=O)c4cccc5ccccc45)cccc3C(=O)N([C@@H](C)CO)C[C@H]2C)cc1
active: AC50 (INS1 [15]) 84.8 µM
inactive: AC50 (INS1 [16]) > 195 µM

C[C@@H](CN1CCC(n2c(=O)[nH]c3ccccc32)CC1)NC(=O)c1cc2cc(F)ccc2[nH]1
active: IC50 (Phospholipase D2) 0.13 µM | IC50 (Phospholipase D1) 0.001 µM

Nc1nonc1-n1nnc(C(=O)N/N=C/c2cccc(Cl)c2)c1CSc1ccc(Cl)cc1
active: AC50 (CAAX prenyl protease 2 [17]) 0.136 µM | AC50 (CAAX prenyl protease 2 [18]) 3.15 µM
